Key:
[1] = Dark toxicity against human HepG2 cells assessed as growth inhibition at 0.1 uM after 24 hrs by SRB assay relative to control; format: cell-based; settings: read-out: GI
[2] = Photocytotoxicity against porcine PLP2 cells assessed as growth inhibition preincubated for 24 hrs followed by irradiation with light at 23 to 24 uW/cm'2 for 30 mins measured after 24 hrs by SRB assay; settings: Sus scrofa
[3] = Dark toxicity against porcine PLP2 cells assessed as growth inhibition at 0.1 uM after 24 hrs by SRB assay relative to control; settings: Sus scrofa, read-out: GI
[4] = Dark toxicity against human HeLa cells assessed as growth inhibition after 24 hrs by SRB assay; format: cell-based
[5] = test system: MCF7; assay: Photocytotoxicity against human MCF7 cells assessed as growth inhibition preincubated for 24 hrs followed by irradiation with light at 23 to 24 uW/cm'2 for 30 mins measured after 24 hrs by SRB assay; format: functional; settings: MCF7, light or radiation study
[6] = test system: HeLa; assay: Photocytotoxicity against human HeLa cells assessed as growth inhibition preincubated for 24 hrs followed by irradiation with light at 23 to 24 uW/cm'2 for 30 mins measured after 24 hrs by SRB assay; format: functional; settings: light or radiation study
[7] = Dark toxicity against human MCF7 cells assessed as growth inhibition at 0.1 uM after 24 hrs by SRB assay relative to control; format: cell-based; settings: read-out: GI
[8] = Dark toxicity against human HepG2 cells assessed as growth inhibition after 24 hrs by SRB assay; format: cell-based
[9] = Dark toxicity against porcine PLP2 cells assessed as growth inhibition after 24 hrs by SRB assay; settings: Sus scrofa
[10] = test system: NCI-H460; assay: Photocytotoxicity against human NCI-H460 cells assessed as growth inhibition preincubated for 24 hrs followed by irradiation with light at 23 to 24 uW/cm'2 for 30 mins measured after 24 hrs by SRB assay; format: functional; settings: NCI-H460, light or radiation study
[11] = Dark toxicity against human NCI-H460 cells assessed as growth inhibition after 24 hrs by SRB assay; format: cell-based
[12] = Dark toxicity against human MCF7 cells assessed as growth inhibition after 24 hrs by SRB assay; format: cell-based
[13] = test system: HepG2; assay: Photocytotoxicity against human HepG2 cells assessed as growth inhibition preincubated for 24 hrs followed by irradiation with light at 23 to 24 uW/cm'2 for 30 mins measured after 24 hrs by SRB assay; format: functional; settings: HepG2, light or radiation study
[14] = Dark toxicity against human NCI-H460 cells assessed as growth inhibition at 0.1 uM after 24 hrs by SRB assay relative to control; format: cell-based; settings: read-out: GI
[15] = Dark toxicity against human HeLa cells assessed as growth inhibition at 0.1 uM after 24 hrs by SRB assay relative to control; format: cell-based; settings: read-out: GI

| SMILES | inhibition at 24 h, 0.1 µM [1] | GI50 at 24 h [2] | inhibition at 24 h, 0.1 µM [3] | GI50 at 24 h [4] | GI50 [5] | GI50 [6] | inhibition at 24 h, 0.1 µM [7] | GI50 at 24 h [8] | GI50 at 24 h [9] | GI50 [10] | GI50 at 24 h [11] | GI50 at 24 h [12] | GI50 [13] | inhibition at 24 h, 0.1 µM [14] | inhibition at 24 h, 0.1 µM [15] |
| --- | --- | --- | --- | --- | --- | --- | --- | --- | --- | --- | --- | --- | --- | --- | --- |
| CCN1/C(=C/C2=C(N(C)CCO)C(=C/c3sc4ccccc4[n+]3CC)/C2=O)Sc2ccccc21 | < 20% | 471 nM | < 20% | 2640 nM | 239 nM | 273 nM | < 20% | 7540 nM | 717 nM | 455 nM | 767 nM | 737 nM | 271 nM | < 20% | < 20% |
| CCN1/C(=C/C2=C(N)C(=C/c3sc4ccccc4[n+]3CC)/C2=O)Sc2ccccc21 | < 20% | 4980 nM | < 20% | > 10000 nM | 918 nM | 288 nM | < 20% | 4570 nM | > 10000 nM | 8350 nM | > 10000 nM | > 10000 nM | 665 nM | < 20% | < 20% |
| CCN1/C(=C/C2=C(N(CCO)CCO)C(=C/c3sc4ccccc4[n+]3CC)/C2=O)Sc2ccccc21 | < 20% | 340 nM | < 20% | > 10000 nM | 257 nM | 88 nM | < 20% | 4490 nM | 621 nM | 404 nM | 940 nM | 5340 nM | 722 nM | < 20% | < 20% |
| CCN1/C(=C/C2=C(NC)C(=C/c3sc4ccccc4[n+]3CC)/C2=O)Sc2ccccc21 | < 20% | 126 nM | < 20% | 2220 nM | 54 nM | 71 nM | < 20% | 7080 nM | 410 nM | 171 nM | 507 nM | 576 nM | 78 nM | < 20% | < 20% |
| CCN1/C(=C/C2=C(NCCO)C(=C/c3sc4ccccc4[n+]3CC)/C2=O)Sc2ccccc21 | < 20% | 385 nM | < 20% | > 10000 nM | 224 nM | 97 nM | < 20% | 7830 nM | 3730 nM | 440 nM | 8820 nM | 7360 nM | 110 nM | < 20% | < 20% |
